What was measured:
reprogrammed MSNs [1] = experiment: CYTO-ID assay for accumulated autophagic vacuoles; assay type: cell-based, human; conditions: 0.5 μM vs DMSO, PID26
From the text: First, tandem monomeric mCherry-GFP-tagged LC3, previously shown to distinguish prefusion autophagic compartments from mature acidic autolysosomes based on the differential pH sensitivity of GFP versus mCherry, was used. […] CYTO-ID assay, a fluorescence-based live-cell assay for accumulated autophagic vacuoles, and immunostaining of p62/SQSTM1, a marker widely used to monitor autophagic activity due to its binding to LC3 and degradation during autophagy, were further performed. […] The difference in p62 between pre-HD-MSNs and HD-MSNs was also validated by immunoblot assay (FIG. 3I). Because caspase activation has been detected in HD, and cell death-related pathways (apoptosis and caspase) were enriched in the brown module, the levels of caspase activation between pre-HD-MSN and HD-MSNs were compared.

reprogrammed MSNs [2] = experiment: SYTOX assay (neuronal cell death); assay type: cell-based, human; conditions: for SYTOX-positive cells (beneficial effect): 0.5 μM vs DMSO
Experimental: 0.1 μM SYTOX gene nucleic acid stain (Invitrogen, S7020) and 1 μl/mL of Hoechst 33342 (Thermo Scientific, 66249) were added into cell medium. Samples were incubated for at least 30 mins at 37° C. prior to live-cell imaging. Images were taken using Leica DMI 4000B inverted microscope with Leica Application Suite (LAS) Advanced Fluorescence.

[3] = test system: α1-antitrypsin Z variant (ATZ); experiment: Immunoblot of steady-state ATZ in HTO/Z cell line model of α1-antitrypsin deficiency; assay type: cell-based; conditions: 24 hr, 0.5 and 2.5 μM vs DMSO (0.5 μM: p=0.003)
Experimental: FIG. 7A-7H show autophagy activator rescues HD-MSNs from degeneration. […] The normalized intensity (bottom) was calculated from immunoblot images for 0.5 μM versus DMSO control (Individual data plotted, n=4; *p=0.003 by t-test; Mean±s.e.m.). FIG. 7C show representative images of p62 and TUBB3-positive cells (top) and quantification of p62 intensity per cell (bottom) at PID26 from multiple healthy control old and HD-MSNs treated with DMSO or 0.5 μM G2-115. Each dot represents one individual's reprogrammed MSN. Scale bars is 20 μm FIG. 7D show representative images of CYTO-ID staining (top) and quantification of CYTO-ID green signals (bottom) at PID26 from multiple healthy control old and HD-MSNs treated with DMSO or 0.5 μM G2-115. Each dot represents one individual's reprogrammed MSN. Scale bar is 20 μm FIG. 7E show representative images (top) and quantification (bottom) of SYTOX-positive cells as a fraction of Hoechst-positive cells in HD-MSN treated with DMSO or different concentration of G2-115 (0.125, 0.25, or 0.5 μM) (n=4). Scale bar is 20 μm. FIG. 7F show quantification of SYTOX-positive cells from multiple healthy control old and HD-MSNs treated with DMSO or 0.5 μM G2-115. […] FIG. 7G show Representative images (left) and quantification (right) of caspase3/7 activation (green) and Annexin V signal (green) from three independent HD-MSN lines treated with DMSO or 0.5 μM G2-115. […]

reprogrammed MSNs [4] = experiment: tandem mCherry-GFP-LC3 reporter puncta quantification; assay type: cell-based, human; conditions: HD-MSNs, 0.5 μM vs DMSO
Experimental: FUW mCherry-GFP-LC3 used was Addgene plasm id # 110060; http://n2t.net/addgene:110060; RRID:Addgene_110060. The concentrated lentivirus of mCherry-GFP-LC3 was added to reprogrammed MSNs at PID20. For imaging of cells expressing mCherry-GFP-LC3, cells were washed once with PBS, fixed and stained by TUBB3 antibody, after verification of expression of GFP and mCherry by microscopy at PID26. Images were captured using a Leica SP5X white light laser confocal system with Leica Application Suite (LAS) Advanced Fluorescence 2.7.3.9723. For quantification of autophagosome (i.e., mCherry+, GFP+ puncta) and autolysosome (i.e., mCherry+, GFP− puncta) compartments in MSNs from multiple HD patients and control individuals, measurements were performed in cells having at least 3 puncta per cell.

p62/SQSTM1 = p62/SQSTM1 immunostaining and immunoblot; assay type: cell-based, human; conditions: 0.5 μM vs DMSO, PID26
Experimental: (§1) Reprogrammed cells were fixed with 4% paraformaldehyde (Electron Microscopy Sciences, #15710) for 20 min at room temperature (RT), and permeabilized with 0.2% Triton X-100 for 10 min at RT. Cells were blocked with 5% BSA and 1% goat serum in PBS and incubated with primary antibodies at 4° C. overnight, then incubated with secondary antibodies for 1 hr at RT. Cells were incubated with DAPI (Sigma, D-9542) for 5 minutes followed by washing with PBS. Images were captured using a Leica SP5X white light laser confocal system with Leica Application Suite (LAS) Advanced Fluorescence 2.7.3.9723.
Cells were lysed in 2% SDS buffer. The concentrations of whole-cell lysates were measured using the Pierce BCA protein assay kit (Thermo Scientific, #23227). […]
First, tandem monomeric mCherry-GFP-tagged LC3, previously shown to distinguish prefusion autophagic compartments from mature acidic autolysosomes based on the differential pH sensitivity of GFP versus mCherry, was used. […] CYTO-ID assay, a fluorescence-based live-cell assay for accumulated autophagic vacuoles, and immunostaining of p62/SQSTM1, a marker widely used to monitor autophagic activity due to its binding to LC3 and degradation during autophagy, were further performed. […]

reprogrammed MSNs [5] = experiment: Apoptosis assay in live cells (Caspase-3/7, Annexin V); assay type: cell-based, human; conditions: HD-MSNs, vs DMSO
Experimental: Reprogrammed cells grown in 96-well plates were treated with 1× Essen Bioscience IncuCyte® Caspase-3/7 Green Reagent (final concentration 5 μM) and 1× Essen Bioscience IncuCyte® Annexin V Green or Red Reagent on day 22 or 26. Image scheduling, collection, and analysis were conducted with the IncuCyte® S3 LiveCell Analysis System platform and IncuCyte S3 v2017A software. Treated plates were imaged every two hours for 7 days. At each timepoint, over 2 images were taken per well in brightfield, FITC, and TRITC channels. Images were analyzed for the number of green or red objects per well. For the apoptotic index, the number of green or red objects (i.n., fluorescence cells) divided by phase area (μm2) per well was quantified by the IncuCyte® S3 Live-Cell Analysis System.

HTT inclusion bodies = HTT inclusion bodies / mHTT aggregation by immunostaining; assay type: cell-based, human; conditions: HD-MSNs, 0.5 μM vs DMSO, PID30
Experimental: as §1

Question: For `O=c1ccc2c(Cl)cc(Cl)cc2[nH]1` [G2-115, 5,7-dichloro-1H-quinolin-2-one], which “number of autophagic vacuoles (CYTO-ID signals)” value (reprogrammed MSNs [1]; HD-MSNs) is on record?
Answer: Its value is “increased”.

Question: What about the “number of autophagic vacuoles (CYTO-ID signals)” value (reprogrammed MSNs [1]; old Ctrl-MSNs) of the same compound?
Answer: Its value is “increased”.

Question: And the “HD-MSN survival (reduction of SYTOX signal)” value (reprogrammed MSNs [2]; HD-MSN, 0.125, 0.25 or 0.5 μM vs DMSO, treated from PID14 every four days for 16 days)?
Answer: Its value is “promoted HD-MSN survival in a dose-dependent manner”.

Question: What about the “SYTOX-positive cells (beneficial effect)” value (reprogrammed MSNs [2]; HD-MSNs from six independent patients) of the same compound?
Answer: The value was “consistent in HD-MSNs from six independent patients”.

Question: And the “SYTOX-positive cells (beneficial effect)” value (reprogrammed MSNs [2]; age-matched (old) Ctrl-MSNs versus HD-MSNs)?
Answer: Its value is “specific to HD-MSNs”.

Question: What about the “steady-state levels of ATZ” value [3] of the same compound?
Answer: Its value is “decreased”.

Question: What about the “average number of autolysosomes” value (reprogrammed MSNs [4]) of the same compound?
Answer: The value was “increased”.

Question: What about the “average number of autophagosomes” value (reprogrammed MSNs [4]) of the same compound?
Answer: The value was “increased”.

Question: And the p62/SQSTM1 signal (p62/SQSTM1; HD-MSNs)?
Answer: The p62/SQSTM1 signal was “decreased”.

Question: What about the p62/SQSTM1 signal (p62/SQSTM1; old Ctrl-MSNs) of the same compound?
Answer: The p62/SQSTM1 signal was “decreased”.

Question: And the “Annexin V signal” value (reprogrammed MSNs [5])?
Answer: Its value is “reduced”.

Question: And the “Caspase 3/7 signal” value (reprogrammed MSNs [5])?
Answer: The value was “reduced”.

Question: And the “number of HTT inclusion bodies” value (HTT inclusion bodies)?
Answer: The value was “reduced”.

Reference: patent US20240011034A1, “INHIBITION OF miR-29b-3p TO ENHANCE NEURONAL SURVIVAL IN HUNTINGTON'S DISEASE” (Washington University, priority 2022, published 2024)
